The source of these data is patent US20210267981A1, “COMPOUNDS FOR THE TREATMENT OF HIV INFECTION AND OTHER DISEASES CAUSED BY RNA VIRUSES” (UNIVERSIDAD CATOLICA DE VALENCIA "SAN VICENTE MARTIR", priority 2018, published 2021).

A word on the IC50: it is the concentration at which inhibition is half-maximal. Usually Kd stands for a measure of binding affinity in units of concentration. One may read the EC50 as the concentration needed to bring the measured effect to its halfway point. The CC50 is the concentration giving 50% cytotoxicity.

The structures appear in SMILES notation. Read-outs that look alike come from different tables or passages of the source. Bounds are passed on as bounds.

The subject of series [1] is IIB-Rev34-50 interaction (subdomain IIB of RRE and FITC-labeled Rev34-50 peptide). Description: Fluorescence anisotropy (FA) inhibition of IIBh-Rev34-50 interaction. The format is binding, HIV-1. On the procedure: Fluorescence Anisotropy (FA).
These experiments were performed and analyzed as described in the state of the art (Prado et al., Biochem Pharmacol 107 (2016) 14-28; Gonzalez-Bulnes et al., Angewandte Chemie-International Edition 52(50) (2013) 13405-13409; Luedtke et al., Biopolymers 70(1) (2003) 103-19), using 96-well plates and Victor X3 or Victor X5 plate readers (Perkin Elmer, Waltham USA). The assays used 10 nM of frevp and 60 nM of IIBh, and included one positive control (a mixture of IIBh and frevp) and two negative controls (frevp and a mixture of IIBh, frevp, and neomycin B). IIBh-frevp inhibition was only considered to exist when anisotropy reached the expected minimum value at the highest inhibitor concentrations. To ensure that there would not be spectral superposition with FITC, anisotropy data was also collected for each of the compounds. None of them emitted fluorescence under the assay conditions. These experiments were repeated three times for each compound.
(§1) The capacity of the compounds to inhibit IIB-Rev34-50 interaction was evaluated by means of an assay based on the detection, by means of fluorescence anisotropy (FA), of the shift of an FITC-labeled Rev34-50 peptide from its binding site in subdomain IIB of RRE. The capacity of the compounds to inhibit the formation of the RRE-Rev complex was evaluated by means of an electrophoretic mobility shift assay (EMSA).
Background: Polarisation of emitted light reports the rotation of a fluorescent probe.

The next series deals with complete RRE-Rev complex. As to the kind of experiment: Electrophoretic mobility shift assay (EMSA) of complete RRE-Rev complex formation. The format is binding, HIV-1. The note with it: 78 nM RRE and 1.32 μM Rev, two independent experiments. On the procedure: Electrophoretic Mobility Shift Assays (EMSA).
These experiments used 78 nM of complete RRE, 1.32 μM of complete Rev, and increasing concentrations of each compound, and were carried out and analyzed as described previously in the state of the art (Prado et al., Biochem Pharmacol 107 (2016) 14-28; Fang et al., Cell 155(3) (2013) 594-605). The IC50 values were determined by measuring the area and the intensity of the band corresponding to free RRE. These experiments were performed at least three times for each compound.
as §1
A general note: Mobility shift assays separate free from complexed probe on a gel.

Series [2] relates to subdomain IIB of the RRE (IIBh-19ap RNA). Description: Fluorescence intensity binding to IIBh RNA, with or without competing RNAtCys or LTRd DNA. Set-up: species or system HIV-1. The note with it: for Kd: IIBh-19ap. On the procedure: Depending on the absorption spectra of the compounds, these experiments measured association with IIBh-19ap or IIBh-23fl RNA sequences labeled with 2-aminopurine and fluorescein in residues A19 and U23 of the IIB loop, respectively (Prado et al., Biochem Pharmacol 107 (2016) 14-28), and were carried out in a SPECTRA GEMINI XPS plate reader (Molecular Devices, Sunnyvale, USA) or a Victor X5 plate reader (Perkin Elmer). The IIB RNA concentration in these assays was 100 nM, and the specificity of the interactions with respect to RNA and DNA was evaluated by duplicating the experiments in the presence of a 100-fold molar excess (10 μM) of RNAtCys or LTRd DNA duplex. All the fluorescence intensity experiments were performed at least three times for each compound.
The specificity of the interaction was evaluated by duplicating the experiments in the presence of a 100-fold molar excess of RNAtCys. Likewise, specificity with respect to a double-stranded DNA was evaluated by further performing the experiments with a 100-fold molar excess of a DNA duplex with 26 base pairs (identified as LTRd) containing NF-κB and Sp-1 transcription factor-binding sites (Prado et al., Biochem Pharmacol 107 (2016) 14-28). These two factors bind to the LTR promoter of HIV-1 DNA and are essential for virus replication (Jones et al., AnnuRevBiochem 63 (1994) 717-43).

A further series concerns HIV-1. As to the kind of experiment: Anti-HIV-1 activity, cell infection assay in MT-2 cells (pNL4.3-Ren supernatants). The format is cell-based. On the procedure: Plasmids, Virus, and Cells for Ex Vivo Assays.
Vectors pNL4.3-Luc and pNL4.3-Ren were generated by cloning luciferase and Renilla genes, respectively, in the nef site of HIV-1 proviral plasmid pNL4.3 (Adachi et al., J Virol 59(2) (1986) 284-91), as described previously in the state of the art (Garcia-Perez et al., J Med Virol 79(2) (2007) 127-37). MT-2 cells (Harada et al., Science 229(4713) (1985) 563-6) and 293T cells (American Type Culture Collection, Rockville, USA) were cultured as described previously (Prado et al., Biochem Pharmacol 107 (2016) 14-28).
(§2) Anti-HIV-1 Activity and Cell Toxicity.
(§3) The methodology used for performing and analyzing these experiments has been described previously (Prado et al., Biochem Pharmacol 107 (2016) 14-28; Gonzalez-Bulnes et al., Angewandte Chemie-International Edition 52(50) (2013) 13405-13409). Briefly, infectious supernatants were obtained from 293T cells transfected with the pNL4.3-Ren plasmid. MT-2 cells were infected with these supernatants in the presence of the compounds, and the anti-HIV activity was quantified 48 h after infection by determining luciferase activity in the cell lysates. Cell viability was evaluated in cells treated with the same compound concentrations using the CellTiter-Glo assay (Promega). The antiviral activity and cell toxicity results represent the average of at least three independent experiments.

A short description of series [3]: Cell toxicity, CellTiter-Glo assay. The format is cell-based. The note with it: human; MT-2 cells, CellTiter-Glo; read-out: CC50.
Excerpt: as §2, §3
A general note: In ATP-based viability assays light output follows the ATP content of the culture.

The next series has as its system MT-2 cells. Description: Cell toxicity, CellTiter-Glo assay. The format is cell-based. The note with it: CC50 versus antiviral concentration of the infection experiments.
Excerpt: as §2, §3

Series [4] relates to complete HIV-1 (NL4.3-luc). As to the kind of experiment: Cell transfection assay, full-length HIV-1 luciferase plasmid (NL4.3-luc) in MT-2 cells. The format is cell-based. On the procedure: Cell Transfection Assays.
MT-2 cells were transfected with plasmids containing a luciferase reporter gene the expression of which was under the control of the complete HIV-1 (NL4.3-luc) or HIV-1 LTR promoter (LTR-Luc). After transfection, the cells were treated with different compound concentrations, and the luciferase activity in the cell lysates was quantified 48 h later (Prado et al., Biochem Pharmacol 107 (2016) 14-28; Gonzalez-Bulnes et al., Angewandte Chemie-International Edition 52(50) (2013) 13405-13409).
In order to identify the target or the set of targets of the tested compounds, an assay based on the transfection of a full-length HIV-1 vector is performed. In this experiment, the entry, reverse transcription, and DNA integration phases of the viral cycle are sidestepped, such that only transcriptional or post-transcriptional events which can be blocked by the inhibitor under study are produced.

A further series relates to IIBh RNA. As to the kind of experiment: NMR spectroscopy of compound binding to IIBh RNA. Set-up: species or system HIV-1. The note with it: increasing ligand:RNA molar ratios. On the procedure: The NMR spectra were acquired in a 500 MHz Bruker Avance spectrometer and analyzed with Topspin 3.5 (Bruker Biospin, Billerica, USA). The interaction between the tested compounds and IIBh RNA samples dissolved at a concentration of 40-60 μM were monitored as described previously in the state of the art (Prado et al., Biochem Pharmacol 107 (2016) 14-28; Gonzalez-Bulnes et al., Angewandte Chemie-International Edition 52(50) (2013) 13405-13409), using one-dimensional and two-dimensional experiments (TOCSY) at increasing ligand:RNA molar ratios.
NMR spectroscopy is then used for identifying the binding sites in the IIBh fork of the compounds. […] This compound altered the signals of residues C9, A19, C20, and U23 comprising the Rev binding site, but also disrupted the signals of the double-helix stems flanking the loop. 2a and 2b required a higher drug:RNA molar ratio to induce changes in the signals of IIBh RNA.

For the compound `N=c1c(S(=O)(=O)c2ccc(Cl)cc2)cc2c(=O)n3ccccc3nc2n1C1CCCCC1` [Compound 2b], the IC50 was 10.3 µM in series [1] (60 nM IIBh and 10 nM frevp, three independent experiments, read-out: IC50 IIB-Rev34-50); 10.3 to 13.7 µM in series [1] (range given for FA and EMSA together for 2a and 2b, read-out: IC50 (FA, IIB-Rev34-50 interaction)); 13.7 µM in the series with complete RRE-Rev complex. The “specificity of the interaction with IIB” value in series [2] (100-fold molar excess of RNAtCys or LTRd) is recorded as “specific”. Moreover, the Kd in series [2] (100-fold molar excess of LTRd DNA duplex, read-out: Kd(IIBh + LTRd)) is 10.2 µM; in series [2] (100-fold molar excess of RNAtCys, read-out: Kd(IIBh + tRNA)), 11.4 µM; in series [2] (no competitor, read-out: Kd(IIBh)), 12.1 µM. Also, in series [2] (Kd(IIBh)/Kd(IIBh + LTRd) quotient), the “specificity IIB/DNA” value was found to be 1.19. In addition, the “specificity IIB/RNA” value in series [2] (Kd(IIBh)/Kd(IIBh + tRNA) quotient) turned out to be 1.06. Also, the half-maximal effective concentration (EC50) is 10.2 µM in the series on HIV-1 (Human immunodeficiency virus 1, MT2, 48 h, read-out: EC50 of infection, HIV); 10.2 µM with HIV-1 (Human immunodeficiency virus 1, MT2, read-out: EC50 cell infection assay); over 100 µM in series [4] (Human immunodeficiency virus 1, MT2, 48 h, read-out: EC50 of transfection, HIV). In addition, the CC50 in series [3] was over 100 µM. For the same compound, in the series with MT-2 cells, the “CC50 values fold greater than the antiviral concentrations” value was over 10 fold. The “activity in the transfection assay” value in series [4] (at concentrations lower than 100 μM) is “inactive”. Also, in the series on IIBh RNA, the “changes of IIBh RNA NMR signals” value is reported as “only induced the widening of signals of residue U23 of the loop at a high drug:RNA molar ratio”.
